In US20260125428A1, “SYNTHETIC TRIPLEX PEPTIDE NUCLEIC ACID-BASED INHIBITORS FOR CANCER THERAPY” (University of Connecticut, priority 2022, published 2026):

How the values were obtained:
C-Myc oncogene [1] = assay: Gene expression (RT-PCR) in U2932 cells after combination treatment; assay type: cell-based, human
Experimental: (§1) Gene expression: The levels of mRNA were measured in different cell lines using real time-polymerase chain reaction (RT-PCR). Both untreated (PBMC, U2932, Raji, Daudi) and PNA treated lymphoma cells were collected at the end of treatment. Total RNA was extracted using Qiagen RNeasy® kit (USA) and concentration was measured by Nanodrop™. cDNA was synthesized using high capacity cDNA reverse transcription kit (Applied Biosystem, USA) following the recommended cycling conditions. Taqman® gene expression assay for C-Myc, EZH2, BCL2, MCL1 and GAPDH were used to amplify the respective mRNAs using the specified cycling conditions in the CFX Real-Time PCR detection system. GAPDH was used as the reference gene and fold change in mRNA expression was obtained by normalizing against the untreated cells or cells treated with HDAC inhibitors.

Raji cells = assay: Cell viability (trypan blue) of Raji cells; assay type: cell-based; conditions: 24 h, different doses
Experimental: (§2) FIGS. 4A-F show effect of cellular uptake of indicated PNAs. (4A) Expression levels of C-Myc oncogene in U2932 (DLBCL), Raji and Daudi cells (Burkitt's lymphoma) in comparison to the peripheral blood mononuclear cells (PBMC). (4B) Cell viability of U2932 cells after 24 h treatment with indicated PNAs at different doses. (4C) Cell viability of Raji cells after 24 h treatment with indicated PNAs at different doses. (4D) Gene expression levels of C-Myc oncogene and its downstream targets including MCL1 and EZH2 in U2932 cells after 24 h of treatment with γPNA1-NLS, γPNA2-NLS, and ScrγPNA4-NLS at 8 μM. (4E) Gene expression levels of C-Myc oncogene and its downstream targets including BCL2 and EZH2 in Raji cells after 24 h of treatment with γPNA1-NLS, γPNA2-NLS, and ScrγPNA4-NLS at 8 μM. (4F) Gene expression levels of C-Myc in U2932 cells after 24 h treatment with γPNA2-NLS and ScrγPNA4-NLS at indicated doses.

U2932 derived xenografts = assay: Tumor growth and survival study in U2932 derived xenograft mice; assay type: in vivo; conditions: 5 mg/kg systemic on day 1, 4, 7, and 10; for survival of the mice: saline 21 days
Experimental: FIGS. 7A-C show survival data of mice after systemic administration of indicated PNAs. (7A) Graph representing the tumor volume of U2932 xenografts after systemic treatment with indicated PNAs (n≥4 mice per group). PNAs were administered systemically on day 1, 4, 7, and 10 (n≥4 mice per group). (7B) The survival of U2932 derived xenograft mice after treatment with γPNA2-NLS, γPNA3, and ScrγPNA4-NLS at 5 mg/kg dose in comparison to the control (saline) mice. (7C) Complete blood count analysis of mice from different groups at the end of the study. RBC: red blood cells; WBC: white blood cells; HGB: hemoglobin; PLT: platelets; HCT: hematocrit; MCH: […]. (D) Blood chemistry analysis of mice from different groups at the end of the study. ALT: alanine transaminase; AST: aspartate transaminase; BUN: blood urea nitrogen; LDH: Lactate dehydrogenase. Results are presented as mean±SEM (n≥4).
In vivo studies in xenograft mice model: U2932 derived xenografts were generated by implanting 10 million cells subcutaneously on the lower right flank of the female NSG mice (NOD.Cg-Prkdc^scidIl2rg^tm1Wj1/SzJ, #005557, Jackson Laboratories, USA) of 5-6 weeks. The mice were maintained in the animal care facility at the University of Connecticut following the required Institutional Animal Care and Use Committee guidelines (IACUC). Mice developed palpable tumors after 3-4 weeks of implantation. Tumor dimensions including length (l), breadth (b), and height (h) were measured using a caliper and volume was calculated using the formula for ellipsoid (0.5236×lbh).
Survival study: Mice bearing tumors about 100-150 mm^3 were divided into 4 groups. Mice were treated with either γPNA2-NLS, γPNA3, Scr-γPNA4-NLS, or saline. PNAs were administered at 5 mg/kg dose on day 1, 4, 7, and 10. The change in tumor volume was measured every day. Mice were euthanized when the tumor volume reached 2000 mm^3. Blood was collected via cardiac punter in 1.5 ml tubes containing 0.5 M EDTA. Organs including tumor, liver, kidney, spleen, heart and lung were collected. Tumor fraction and all organs were kept in 10% formalin and submitted for histology. The complete blood count analysis was performed on the collected blood samples using Sysmex CBC analyzer. Plasma was separated from the blood samples and submitted to Antech diagnostic for blood chemistry analysis to quantify the levels of alanine transaminase, lactate dehydrogenase, aspartate transaminase and blood urea nitrogen.

U2932 cells [2] = assay: Viability of U2932 cells, combination of PNAs with HDAC inhibitors and other drugs
Experimental: FIGS. 9A-D show cell viability after treatment with indicated PNAs. (9A) The viability of U2932 cells after treatment with γPNA1-NLS (8 μM), romidepsin (10 nM) and combination of γPNA1-NLS with romidepsin over 96 hours. (9B) The viability of U2932 cells after treatment with γPNA2-NLS (8 μM), romidepsin (10 nM) and combination of γPNA2-NLS with romidepsin over 96 hours. (9C) Fold change in C-Myc levels after combination of γPNA1-NLS and γPNA2-NLS with romidepsin in comparison to only romidepsin treatment. (9D) Fold change in BCL2 levels after combination of γPNA1-NLS and γPNA2-NLS with romidepsin in comparison to only romidepsin treatment.
FIGS. 10A-F show the viability of U2932 cells after indicated treatment. (10A) Viability of U2932 cells after treatment with γPNA2-NLS […], vorinostat (2.5 μM) and combination of γPNA2-NLS with vorinostat over 96 hours. (10B) The viability of U2932 cells after treatment with γPNA2-NLS (8 μM), valproic acid (2 mM) and combination of γPNA2-NLS with valproic acid over 96 hours. […] (10E) The viability of U2932 cells after treatment with CHOP (cyclophosphamide, vincristine, doxorubicin, prednisone) and combination of γPNA2-NLS with CHOP at different doses.
Cell viability: U2932 and Raji cells were seeded in 96 well plates at 20,000 cells/well. PNAs were added to the media at different concentrations (1, 2, 4, and 8 μM). […] The cell viability was then measured via trypan blue staining on day 1, 2, and 4.

U2932 cells [3] = assay: Cell viability (trypan blue) of U2932 cells; assay type: cell-based; conditions: 24 h, different doses
Experimental: as §2

C-Myc oncogene [4] = assay: Gene expression (RT-PCR) of C-Myc and downstream targets in Raji cells; assay type: cell-based, human; conditions: 24 h, 8 μM
Experimental: as §2, §1

C-Myc oncogene [5] = assay: Gene expression (RT-PCR) of C-Myc and downstream targets in U2932 cells; assay type: cell-based, human; conditions: 24 h
Experimental: as §2, §1

## JJJTJJJT-OOO-TCCCTCCCTCCGTTCTTTTTCCC-K-OOO-VKRKKKP (gamma PNA tail clamp; linkers; NLS peptide; gammaPNA to target C-Myc Exon 1; misc_feature 1 JJJTJJJT-linker- is covalently linked to the backbone, wherein J is pseudoisocytosine and the linker is 11-Amino-3,6,9-Trioxaundecanoic Acid (DCHA), represented as -OOO-; misc_feature 23 -K-linker-SEQ ID NO: 5 is covalently linked to the backbone, wherein the linker is 11-Amino-3,6,9-Trioxaundecanoic Acid (DCHA), represented as -OOO-; modified_base 1) [γPNA2-NLS]
C-Myc oncogene [1]; 96 h, valproic acid 2 mM
  knockdown of c-myc, combination with valproic acid: higher knockdown of c-myc
C-Myc oncogene [1]; 96 h, vorinostat 2.5 uM, PNA 8 μM
  knockdown of c-myc, combination with vorinostat: higher knockdown of c-myc
C-Myc oncogene [1]; day 4
  BCL-2 levels, combination with romidepsin in comparison to only romidepsin: reduced levels
C-Myc oncogene [1]; day 4, PNA 8 uM, romidepsin 10 nM
  decrease in C-Myc levels, combination with romidepsin compared with only romidepsin: > 90%
Raji cells
  viability of Raji cells: significant decrease in the viability
U2932 derived xenografts
  efficacy on tumor growth in comparison to γPNA3: superior efficacy
  tumor growth in comparison to the control groups: significantly reduced tumor growth
  survival of the mice: 29 days
U2932 cells [2]; U2932 cells, over time
  viability, combination with venetoclax: significant reduction in viability
U2932 cells [2]; U2932 cells, romidepsin 10 nM, PNA 8 uM
  combination effect with romidepsin on viability (in words): synergistic activity
U2932 cells [2]; U2932 cells, trypan blue, 24 h and 48 h
  viability, combination with CHOP: significant reduction in viability
U2932 cells [2]; U2932 cells, valproic acid 2 mM, PNA 8 μM, over 96 hours
  viability, combination with valproic acid in comparison to the individual treatments: significant decrease in viability
U2932 cells [2]; U2932 cells, vorinostat 2.5 μM, over 96 hours
  combination effect with vorinostat on viability: synergistic activity
U2932 cells [2]; romidepsin 10 nM pretreatment 24 h, PNA 8 uM, day 4
  decrease in U2932 cell viability, combination with romidepsin: approximately 80%
U2932 cells [3]
  viability of U2932 cells: significant decrease in the viability
C-Myc oncogene [4]
  decrease in the levels of C-Myc: > 50%
  levels of downstream targets BCL2 and EZH2: downregulation of BCL2 and EZH2
C-Myc oncogene [5]; different doses
  dose of maximum knockdown of C-Myc: 8 µM
C-Myc oncogene [5]; RT-PCR, 8 μM
  decrease in the levels of C-Myc: > 50%
  levels of downstream targets MCL1 and EZH2: significant decrease in the levels of MCL1 and EZH2

## X5CCTCCCTTCTTCCTTCTCCCTTGX2 (gamma PNA; NLS peptide; scramble gammaPNA; misc_feature 1 TJJJJJJTJ-linker- is covalently linked to the backbone, wherein J is pseudoisocytosine and the linker is 11-Amino-3,6,9-Trioxaundecanoic Acid (DCHA), represented as -OOO-; misc_feature 23 -K-linker-SEQ ID NO: 5 is covalently linked to the backbone, wherein the linker is 11-Amino-3,6,9-Trioxaundecanoic Acid (DCHA), represented as -OOO-; modified_base 1..23 OTHER; p) [ScrγPNA4-NLS, reference compound]
Raji cells
  viability of Raji cells: no impact on the viability
U2932 derived xenografts
  survival of the mice: 19.5 days
U2932 cells [3]
  viability of U2932 cells: no impact on the viability
C-Myc oncogene [4]
  levels of downstream targets BCL2 and EZH2: no change in their levels
C-Myc oncogene [5]; different doses
  knockdown of C-Myc at different doses (in words): no activity
C-Myc oncogene [5]; RT-PCR, 8 μM
  levels of downstream targets MCL1 and EZH2: no change in their levels
